# Experimental data: patent US8956622B2, “Peptidic antagonists of class III semaphorins/neuropilins complexes” (INSERM—Institut National de la Sante et de la Recherche …, priority 2005, dated 2015)
# pIC50: −log10 of the molar value. Read-outs that look alike come from different tables or passages of the source.
# Columns and labels:
# [1] = tested on: cortical axons collapses triggered by Sema3A; experiment: Cortical axons collapses triggered by Sema3A in neocortex explants; format: cell-based, mouse; conditions: Sema3A 100 ng/ml, peptide 10^−8 to 10^−11 M, 2 h, read-out: IC50, inhibition of cortical axons collapses induced by Sema3A
# Method: The inhibitory axon growth property of Sema 3A is supposed to be linked to its induction capacity of growth cone collapses. To investigate the effect of the pTM-NRP1 peptide on the Sema 3A functional properties, the growth of cortical neurons was analyzed in the presence or not of Sema 3A and of pTM-NRP1 or pTM-NRP1^mut (NRP1 TM with a triple G→V mutation) peptides.
# Laminine/Poly-L-Lysine substrates have been made by adding 980 μL of Gey's balanced salt solution (GBSS, SIGMA) to 10 μL laminine (1 mg/ml, SIGMA) and to 10 μL poly-L-Lysine (10 mg/ml, SIGMA). Sterile coverslips have been placed in a big dish and added with substrate (100 μL). Then, ‘sandwiches’ have been prepared by covering each coverslip with a second one. After an incubation for at least 30 min at 37° C. under 5% CO2 in air, ‘sandwiches’ have been opened and each coverslip has been rinsed with deionized water. Explants have been cultured on dried coverslips.
# Neocortex fragments prepared from E15 mouse embryos (E1 determined as the first day of embryonic development by detection of vaginal plug) have been transferred on a tissue chopper disk. Tissue have been cut into 200×200 μm by rotating the disk by 90° after the first cut. Cortex cubes have been collected with a spatula and put into culture medium in a Petri dish. Two coverslips with substrate have been placed in a small Petri dish (50 mm diameter, FALCON). After adding 750 μl of culture medium, the coverslips should stay in the incubator for at least 10 minutes. Using a dissecting microscope, forty to fifty cortical explants have been collected in 20 μl culture medium and carefully placed onto the coverslips. After 15 min at room temperature, most explants have adhered to their substrate. 2250 μl of culture medium have been slowly added to each dish. Then, explants cultures have been kept at 37° C. under 5% CO2 in air.
# A radial outgrowth could be seen after 18-24 h in culture, and individual fibres and growth cones could have therefore been analyzed. Products tested on growth cones have been directly added in culture medium for 2 h: • purified Sema3A (100 ng/ml) prepared from conditioned medium of HEK293 cells stably expressing Sema3A. The purification was performed by using the anti-Flag system, SIGMA) • pTM-NRP1 (10^−8, 10^−9, 10^−10 and 10^−11 M), • 10^−8M mpTM-NRP1, • 10^−8M pTM-ErbB2w (SEQ ID NO. 18).
# After incubation, 4% formaldehyde has been directly added in culture medium (v/v) for 15min. Then the solution has been removed and replaced by 4% formaldehyde for 15 min.
# [2] = tested on: COS-1 cells expressing NRP1 and Plexin-A1; experiment: COS cellular collapses triggered by Sema3A; format: cell-based; conditions: peptide 10^−9 M, 1 hour pre-incubation, Sema 3A 4 hours
# Method: Nevertheless, the artificial expression of NRP1 and Plexin-A1 in COS cells allows Sema 3A to trigger cellular collapses. To investigate the effect of the pTM-NRP1 peptide on the Sema3A functional properties, the shape of COS cells expressing NRP1 and Plexin-A1 was analyzed in the presence or not of Sema 3A and of pTM-NRP1 or pTM-NRP1^mut peptide.
# COS-1 cells have been transfected by 1 μg of pBK-CMV (STRATAGENE) plasmids containing NRP1 and plexin-A1 coding sequences (provided by Pr. PUSCHEL; MUNSTER Universitat, Germany) with LIPOFECTAMINE 2000 (IN VITROGEN) according to the manufacturer's instructions in 6-well plates. Stably COS-1 transfected cells have been selected with 0.7% geneticine. Stably transfected COS-1 cells have been cultured on 12-well plates with previously poly-L-lysine-coated glass coverslips. Cells have been then incubated 1 hour with pTM-NRP1 or pTM-NRP1^mut peptide (10^−9M) at 37° C. The culture medium has been then removed and replaced by conditioned medium of HEK cells stably transfected or not with a construction expressing Sema 3A (100 μl/ml D-MEM) for 4 hours at 37° C. Finally, cells have been fixed with 2% formaldehyde for 30 minutes followed by 15 minutes in formaldehyde 4%. For each condition tested, about 400 cells have been analyzed.
# PC12 cells = experiment: PC12 cell differentiation / neuritic outgrowth assay; format: cell-based; conditions: peptide 10^−9 M
# Method: To further investigate the biochemical consequence of the TM-NRP1 in terms of receptor complex formation, we analyzed the formation of complexes in the PC12 neuronal cells model.
# PC12 (ATCC: CRL-1721) were grown in D-MEM medium with 4.5 g of glucose/L (GIBCO), 5% FVS, 10% horse serum, glutamine 580 mg/L and antibiotics. For functional assays, PC12 were cultured on 12-wells plates with previously poly-L-lysine-coated glass coverslips. PC12 cells were incubated 1 h with or without pTM-NRP1 peptide (10^−9M) at 37° C. Culture medium was removed and replaced by NGF-containing (100 ng/mL; GIBCO) serum free medium or by conditioned medium obtained from HEK293 cells stably expressing Sema3A or non-transfected cells (control, see BAGNARD et al., 1998 for details) for 12 h at 37° C.
# Cells were fixed with 2% formaldehyde for 30 mn followed by 15 mn in 4% formaldehyde. For each condition tested, around 400 cells were analyzed to evaluate neuritic outgrowth (Statistical analyses were made by using χ^2 test).
sequence,measurement,setting,value
ILITIIAMSALGVLLGAVCGVVL [pTM-NRP1],pIC50,[1]; listed as peptide corresponding to the transmembrane domain of NRP1,> 11.00
same,pIC50,[1],~11.00
same,effect on cellular collapses of COS-1 cells triggered by Sema 3A,[2],completely abolished
same,NGF effect on PC12 cell differentiation,PC12 cells; NGF 100 ng/mL 12 h,preserved
same,Sema3A induced neurite growth promotion,PC12 cells; Sema3A conditioned medium 12 h,significantly reduced
